Here are results for one molecule from PMC4502414, “Transforming berberine into its intestine-absorbable form by the gut microbiota” (Scientific Reports, 2015).

In one data set the target is T1, MAO-B (Rattus norvegicus, UniProt P19643).
T1 sequence (P19643 1-520): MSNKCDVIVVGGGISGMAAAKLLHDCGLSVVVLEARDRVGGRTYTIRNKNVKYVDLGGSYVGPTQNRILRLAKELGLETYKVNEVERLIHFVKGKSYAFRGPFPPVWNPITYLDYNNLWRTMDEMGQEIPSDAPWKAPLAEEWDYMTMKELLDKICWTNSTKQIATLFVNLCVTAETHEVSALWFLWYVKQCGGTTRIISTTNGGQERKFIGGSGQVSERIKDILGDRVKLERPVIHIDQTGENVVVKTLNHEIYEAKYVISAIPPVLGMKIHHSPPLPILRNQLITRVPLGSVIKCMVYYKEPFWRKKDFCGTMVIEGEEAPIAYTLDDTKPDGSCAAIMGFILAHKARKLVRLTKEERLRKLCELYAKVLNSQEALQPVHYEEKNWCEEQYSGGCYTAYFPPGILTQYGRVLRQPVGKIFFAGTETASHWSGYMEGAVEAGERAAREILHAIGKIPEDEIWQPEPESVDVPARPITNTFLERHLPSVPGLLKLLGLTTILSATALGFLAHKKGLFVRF
To be noted: intestinal homogenate, 30 min, no inhibitor.

In a further data set the test system is Caco-2 cells. The data set can be described thus: Absorption of BBR and dhBBR in Caco-2 cells. Format: in vitro ADME. Particulars: Caco-2. The protocol:
(§1) A Caco-2 cell assay was conducted using a method reported previously. […] To determine the rate of drug transport in the apical-to-basolateral direction, 200 μl of the compound working solution was added to the filter well (apical compartment), and 800 μl of HBSS was added to the receiver plate (basolateral compartment). Accordingly, to determine the rate of drug transport in the basolateral-to-apical direction, 800 μl of the compound working solution was added to each well of the receiver plate and 200 μl of HBSS was added to the filter well. The plates were incubated for 30 min at 37 °C with shaking at 150 rpm on a rotary shaker. At the end of the transport period, aliquots of 50 μl were removed directly from the apical and basolateral wells and transferred to wells of new plates. Four volumes of cold methanol containing internal standards were added into each well. The samples were centrifuged at 16,000 g for 15 min. Aliquots of 200 μl of the supernatant were used for the LC-MS/MS analysis.

Data set [1] is described as follows: Absorption of BBR and dhBBR in Caco-2 cells. Format: in vitro ADME. Particulars: human. The protocol: as §1
Data set [2] in a line: Plasma pharmacokinetics after oral dhBBR or BBR in rats. Format: in vivo, SD rats. Particulars: oral dhBBR 200 mg/kg. As for the experimental part: The plasma (100 μl) was precipitated with 100 μl of acetonitrile after addition of 10 μl of the internal standard. BBR served as a control in the study. The plasma concentrations of BBR and dhBBR were determined using LC-MS/MS 8040 and LC-MS/MS 8050.

The target in another data set is T2, nitroreductase (Escherichia coli, UniProt P38489).
T2 construct: purchased Sigma-Aldrich Co. (Shanghai, China); host or cells: Escherichia coli
T2 sequence (P38489 whole entry): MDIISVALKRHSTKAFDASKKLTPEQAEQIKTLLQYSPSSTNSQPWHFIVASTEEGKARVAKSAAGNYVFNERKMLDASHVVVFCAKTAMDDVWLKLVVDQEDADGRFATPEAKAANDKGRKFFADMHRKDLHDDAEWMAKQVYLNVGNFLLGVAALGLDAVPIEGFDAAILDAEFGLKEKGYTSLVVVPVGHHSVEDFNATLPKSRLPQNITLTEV
The data set can be described thus: Nitroreductase-mediated BBR reduction, cell-free incubation. Format: biochemical. To be noted: BBR with nitroreductase, 37 °C. The protocol:
BBR was incubated with nitroreductase in intestinal bacteria cultures. The reaction mixture consisted of BBR (50 μg/ml), an NADPH-regenerating system and nitroreductase (5 μg/ml) in a final volume of 1 ml under the protection of N2. After incubation for 0, 2, 4, 6 and 12 h at 37 °C, the reaction was terminated by the addition of 1 ml of ice-cold acetonitrile. The samples were then extracted with 1 ml of ethyl acetate after adding 1 ml of 0.5 M sodium hydroxide solution. The organic phase was evaporated to dryness under a nitrogen flow in a water bath at 40 °C. The residue was dissolved with 200 μl of the mobile phase for further analysis. 2-Iodosobenzoic acid (2-IBA), a specific inhibitor of nitroreductase, was used to verify the role of bacterial nitroreductase.

The nature of data set [3]: Excretion of BBR, dhBBR and other BBR metabolites in rat feces, urine and bile after oral BBR. Format: in vivo, SD rats. As for the experimental part:
For the analysis of the in vivo intestinal metabolites of BBR, six SD rats were orally treated with BBR (200 mg/kg), and their feces were collected 0, 6, 12, 24, 36, 48, and 72 h after treatment. The method used for the preparation of the feces was reported previously. An aliquot of 1 μl was injected into the GC-MS instrument. The level of dhBBR in feces was measured and calculated based on the standard curve obtained with the in vitro intestinal bacteria incubation mixture.

A short description of data set [4]: Effect of heat inactivation and vitamin C on dhBBR-to-BBR transformation in rat small intestine homogenate. To be noted: homogenate boiled for 2 min. Format: in vitro ADME. As for the experimental part:
The rats (n = 3) were sacrificed to obtain fresh small intestine homogenate. The homogenate was then boiled for 2 min to inactivate all of the enzymes. After pre-incubation at 37 °C for 2 min, 5 μl of dhBBR (10 mM, dissolved in DMSO) was added into the inactivated homogenate, and fresh homogenate (active one) was used as a reference. The sample was mixed thoroughly and centrifuged at 16,000 g for 5 min. The supernatant was transferred into new tubes, treated with 500 μl of acetonitrile, and then centrifuged. Twenty-microliter aliquots were used for the HPLC analysis.
To examine the oxidative reaction, 100 μl of vitamin C was pre-incubated with the inactivated homogenate; the final concentrations of vitamin C were 95, 9.5 and 0.95 mM. The superoxide anion in the sample was detected with an O2^− ELISA kit (Beijing Biolab Co., Ltd., Beijing, China; lot: 201404) following the manufacturer’s instructions.

Data set [5] can be described thus: 72-h cumulative fecal excretion of BBR and dhBBR in pseudo germ-free (PGF) and conventional rats. Format: in vivo, SD rats. Particulars: oral BBR 200 mg/kg. As for the experimental part:
Male SD rats (180–200 g) were orally treated with cefadroxil (100 mg/kg), terramycin (300 mg/kg) and erythromycin (300 mg/kg) twice a day for 3 days, and pharmacokinetic examination was performed 2 days after final administration. The colon contents of the rats were collected on the first and third days after the final treatment with antibiotics, and the germ-free status was confirmed by culturing fecal samples aerobically on a nutrient agar culture medium. Fecal samples from non-antibiotic-exposed rats served as control samples. Before oral administration of a single dose of BBR (200 mg/kg), the PGF rats were fasted overnight with free access to water. […] The samples were stored at −20 °C for further analysis.

Procedure for MAO-B: The reaction system consisted of dhBBR (100 μM), MAO-B (0.2 mg/ml) and phosphate-buffered saline (PBS, pH = 7.4) in a final volume of 200 μl. The MAO-B was pre-incubated via centrifugation at 850 rpm at 37 °C for 5 min, and this step was followed by the addition of dhBBR. The reaction was terminated after 30 min by adding an equal volume of ice-cold acetonitrile and centrifuging at 14,000 g for 5 min. Ten microliters of the supernatant was injected into the HPLC instrument for analysis.

By Papp A→B is commonly meant the apparent permeability from the apical to the basolateral side of a cell layer. Read a low Papp A→B as slow passage. One may read the AUC(0-t) as the area under the concentration-time curve up to a stated or last time point. As usually defined, the Cmax is the maximum level reached in the sampled fluid or tissue. In the case of `COc1ccc2c(c1OC)CN1CCc3cc4c(cc3C1=C2)OCO4` [dhBBR, dihydroberberine], the dhBBR-to-BBR reversion result at MAO-B is reported as “complete”. Moreover, the “fold Papp (AP-BL) of dhBBR over BBR” value in the data set on Caco-2 cells is recorded as 11.9 fold. Besides, the efflux ratio at 30 min, 5 μM in data set [1] (Caco-2, pH 7.4, read-out: efflux ratio (ER)) worked out at 1.58. The Papp A→B at 30 min, 5 μM in data set [1] (pH 7.4, Caco-2, 5 μM, 30 min) was 45.1 nm/s. Moreover, the AUC(0-t) in data set [2] (SD, rat, plasma, po, 200 mg/kg, Fig. 3b curve 2, read-out: AUC(0-t) of dhBBR in plasma) was 0.0489 µg·h/mL. Further, the Cmax in data set [2] (SD, rat, plasma, po, 200 mg/kg, Fig. 3b curve 2, read-out: Cmax of dhBBR in plasma) was determined as 0.0103 µg/mL. In data set [2], the “dhBBR level in plasma” value is on record as “less than 10 ng/ml”. The “incubation time after which dhBBR became detectable” value at nitroreductase was determined as 4 h. Also, the “time of peak amount of dhBBR in feces” value in data set [3] (after oral BBR) lay in the range of 12 to 24 h. Besides, in data set [3] (oral BBR, 72-h period, urine, bile and feces), the “detection of dhBBR in rat excretions” value is “detected only in feces”. Moreover, the “effect of heat inactivation of homogenate on dhBBR-to-BBR reversion” value in data set [4] is listed as “did not reduce the dhBBR-to-BBR reversion”. The “72-h-cumulative dhBBR in feces, % of the giving amount of BBR” value in data set [5] (PGF rats) is listed as 6.09%; in data set [5] (untreated (conventional) rats), 18.21%.
